Results as given in PMC4893628, “Chalcone-based Selective Inhibitors of a C4 Plant Key Enzyme as Novel Potential Herbicides” (Scientific Reports, 2016).
Like-named read-outs stand apart in the source and are kept apart here.

What was measured:
[1] = test system: Escherichia coli K-12 MG1655; experiment: Bacterial growth in microscale cultivation, E. coli; assay type: cell-based; conditions: for activity at 8 µM / activity at 80 µM / activity at 800 µM / activity at 5 µM / activity at 50 µM / activity at 500 µM / activity at 4 µM / activity at 40 µM / activity at 400 µM / activity at 55 µM / activity at 550 µM: Escherichia coli; for activity at 8 µM / activity at 80 µM / activity at 800 µM / Lag Phase / activity at 4 µM / activity at 40 µM / activity at 400 µM / activity at 55 µM / activity at 550 µM: relative to control
Procedure: The following bacteria were cultivated in the presence of trans-chalcone derived inhibitors: Corynebacterium glutamicum ATCC13032[43], Escherichia coli K-12 MG1655[44], Pseudomonas putida KT2440[45], and Bacillus subtilis 168[46]. The growth of these bacteria was monitored in flower-well plates shaken at 1200 rpm as backscatter at 620 nm (gain 20) using a BioLector® microscale cultivation system (m2p labs, Baesweiler, Germany). For further experimental details please refer to the Supplementary Information.
medium or the appropriate minimal medium and shaken at 140 rpm overnight. For inoculation of
the main culture, cells equivalent to an optical density at 600 nm of 0.5 (C. glutamicum, E. coli,
and P. putida) or 0.25 (B. subtilis) in 800 µL medium were washed and resuspended in fresh
media. Inhibitor substances were dissolved in DMSO and added to the media to a final
Since the least polar trans-chalcone and 2’-hydroxychalcone precipitated in the growth media at
the highest concentrations, the maximal concentration of these compounds was reduced to 400
µM and 100 µM, respectively. The final backscatter at 620 nm, the growth rate (h-1), and the
duration of the lag phase of all cultures were determined in a BioLector microscale cultivation
system in comparison to negative controls supplemented with the solvent DMSO. A longer lag

F. trinervia PEPC = biological target: T1, F. trinervia PEPC (Flaveria trinervia, UniProt P30694); experiment: biochemical; assay type: biochemical; conditions: for Selectivity C4/C3: C4 PEPC over C3 isoform; for IC50: C4 PEPC
T1 construct: the full-length ppcA gene of PEPC from F. trinervia (EMBL-Bank X61304); made in house; host or cells: Escherichia coli BL21(DE3)
T1 sequence (P30694 1-966): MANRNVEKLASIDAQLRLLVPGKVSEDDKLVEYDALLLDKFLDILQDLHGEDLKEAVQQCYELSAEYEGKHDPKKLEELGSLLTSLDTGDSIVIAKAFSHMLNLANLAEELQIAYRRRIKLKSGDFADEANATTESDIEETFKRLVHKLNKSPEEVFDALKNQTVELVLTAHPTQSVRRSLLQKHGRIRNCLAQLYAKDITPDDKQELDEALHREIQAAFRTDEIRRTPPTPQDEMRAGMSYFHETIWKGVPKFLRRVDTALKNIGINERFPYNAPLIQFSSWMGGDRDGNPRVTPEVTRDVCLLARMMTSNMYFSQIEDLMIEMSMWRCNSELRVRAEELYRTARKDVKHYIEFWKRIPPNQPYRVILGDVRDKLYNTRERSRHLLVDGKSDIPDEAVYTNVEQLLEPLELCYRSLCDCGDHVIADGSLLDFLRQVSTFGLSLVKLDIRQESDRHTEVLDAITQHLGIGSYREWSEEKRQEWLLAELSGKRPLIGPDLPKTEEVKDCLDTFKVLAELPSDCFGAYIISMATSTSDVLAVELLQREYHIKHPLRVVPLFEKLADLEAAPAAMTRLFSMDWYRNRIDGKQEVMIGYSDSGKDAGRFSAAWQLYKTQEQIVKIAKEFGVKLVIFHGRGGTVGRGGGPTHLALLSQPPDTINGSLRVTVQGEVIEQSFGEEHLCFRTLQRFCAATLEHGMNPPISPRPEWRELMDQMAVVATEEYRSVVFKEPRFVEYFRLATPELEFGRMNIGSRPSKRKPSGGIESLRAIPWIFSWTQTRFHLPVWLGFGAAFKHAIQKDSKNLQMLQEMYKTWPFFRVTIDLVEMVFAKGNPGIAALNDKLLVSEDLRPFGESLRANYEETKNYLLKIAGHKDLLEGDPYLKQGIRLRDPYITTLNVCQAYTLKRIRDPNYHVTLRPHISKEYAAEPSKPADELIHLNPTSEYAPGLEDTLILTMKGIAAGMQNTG
Procedure: The IC50 values of small molecule compounds on F. pringlei and F. trinervia PEPCs were determined using PEPC coupled spectrophotometric assay. The amount of NADH oxidized by NADH-malate dehydrogenase was measured by the decrease in absorbance at 340 nm in a Beckman DU-800 spectrophotometer, thus the value is in proportion to the corresponding substrate conversion of the enzyme. […] The reactions were started by adding two folds of the Km value of PEP for each enzyme. The data were analyzed using GraFit (Erithacus Software, UK).

[2] = MG1655, complex medium, 4 µM, read-out: Final Backscatter
[3] = MG1655, complex medium, 4 µM, read-out: Growth rate
[4] = MG1655, complex medium, 40 µM, read-out: Final Backscatter
[5] = MG1655, complex medium, 40 µM, read-out: Growth rate
[6] = MG1655, complex medium, 400 µM, read-out: Growth rate
[7] = MG1655, minimal medium, 4 µM, read-out: Final Backscatter
[8] = MG1655, minimal medium, 4 µM, read-out: Growth rate
[9] = MG1655, minimal medium, 40 µM, read-out: Final Backscatter
[10] = MG1655, minimal medium, 40 µM, read-out: Growth rate
[11] = MG1655, minimal medium, 400 µM, read-out: Final Backscatter
[12] = MG1655, minimal medium, 400 µM, read-out: Growth rate
[13] = read-out: IC50 F. trinervia PEPC
[14] = MG1655, complex medium, 400 µM, read-out: Final Backscatter

SMILES | Selectivity C4/C3 (F. trinervia PEPC) [fold] | IC50 (F. trinervia PEPC; IC50 F. trinervia PEPC) [µM] | activity at 4 µM [1, 2] [%] | activity at 4 µM [1, 3] [%] | activity at 40 µM [1, 4] [%] | activity at 40 µM [1, 5] [%] | activity at 400 µM [1, 6] [%] | activity at 4 µM [1, 7] [%] | activity at 4 µM [1, 8] [%] | activity at 40 µM [1, 9] [%] | activity at 40 µM [1, 10] [%] | activity at 400 µM [1, 11] [%] | activity at 400 µM [1, 12] [%] | Lag Phase ([1]; complex medium, 4 µM) | Lag Phase ([1]; complex medium, 40 µM) | Lag Phase ([1]; complex medium, 400 µM) | Lag Phase ([1]; minimal medium, 4 µM) | Lag Phase ([1]; minimal medium, 40 µM) | Lag Phase ([1]; minimal medium, 400 µM) | IC50 (F. trinervia PEPC; [13]) [µM] | further results
O=C(/C=C/c1ccccc1)c1ccccc1 [Compound 1, trans-Chalcone] | 1.5 | 77.5 ± 2.7 | – | – | – | – | – | – | – | – | – | – | – | – | – | – | – | – | – | – | activity at 8 µM ([1]; MG1655, complex medium, 8 µM, read-out: Final Backscatter): 99%; activity at 8 µM ([1]; MG1655, complex medium, 8 µM, read-out: Growth rate): 105%; activity at 80 µM ([1]; MG1655, complex medium, 80 µM, read-out: Final Backscatter): 97.4%; activity at 80 µM ([1]; MG1655, complex medium, 80 µM, read-out: Growth rate): 109%; activity at 800 µM ([1]; MG1655, complex medium, 800 µM, read-out: Final Backscatter): 108%; activity at 800 µM ([1]; MG1655, complex medium, 800 µM, read-out: Growth rate): 94.7%; activity at 8 µM ([1]; MG1655, minimal medium, 8 µM, read-out: Final Backscatter): 100%; activity at 8 µM ([1]; MG1655, minimal medium, 8 µM, read-out: Growth rate): 97.5%; activity at 80 µM ([1]; MG1655, minimal medium, 80 µM, read-out: Final Backscatter): 95.1%; activity at 80 µM ([1]; MG1655, minimal medium, 80 µM, read-out: Growth rate): 104%; activity at 800 µM ([1]; MG1655, minimal medium, 800 µM, read-out: Final Backscatter): 103%; activity at 800 µM ([1]; MG1655, minimal medium, 800 µM, read-out: Growth rate): 107%; Lag Phase ([1]; complex medium, 8 µM): 102,4%; Lag Phase ([1]; complex medium, 80 µM): 102,4%; Lag Phase ([1]; complex medium, 800 µM): 101,2%; Lag Phase ([1]; minimal medium, 8 µM): 99,1%; Lag Phase ([1]; minimal medium, 80 µM): 101,8%; Lag Phase ([1]; minimal medium, 800 µM): 97,8%
O=C(/C=C/c1ccccc1)c1ccccc1O [Compound 2, 2′-Hydroxychalcone] | 1.5 | 51.9 ± 15 | – | – | – | – | – | – | – | – | – | – | – | – | – | – | – | – | – | – | activity at 5 µM ([1]; MG1655, read-out: Final Backscatter, complex medium, 5 µM, relative to control): 100%; activity at 50 µM ([1]; MG1655, read-out: Final Backscatter, complex medium, 50 µM, relative to control): 103%; activity at 500 µM ([1]; MG1655, read-out: Final Backscatter, complex medium, 500 µM, relative to control): 98.1%; activity at 5 µM ([1]; MG1655, read-out: Final Backscatter, minimal medium, 5 µM, relative to control): 100%; activity at 50 µM ([1]; MG1655, read-out: Final Backscatter, minimal medium, 50 µM, relative to control): 97%; activity at 500 µM ([1]; MG1655, read-out: Final Backscatter, minimal medium, 500 µM, relative to control): 101%; activity at 5 µM ([1]; MG1655, read-out: Growth rate, complex medium, 5 µM, relative to control): 97.7%; activity at 50 µM ([1]; MG1655, read-out: Growth rate, complex medium, 50 µM, relative to control): 86.6%; activity at 5 µM ([1]; MG1655, read-out: Growth rate, minimal medium, 5 µM, relative to control): 102%; activity at 50 µM ([1]; MG1655, read-out: Growth rate, minimal medium, 50 µM, relative to control): 105%; Lag Phase ([1]; complex medium, 5 µM): 95,5%; Lag Phase ([1]; complex medium, 50 µM): 100,0%; Lag Phase ([1]; minimal medium, 5 µM): 89,4%; Lag Phase ([1]; minimal medium, 50 µM): 91,6%
O=C(/C=C/c1ccc(O)cc1)c1ccccc1O [Compound 3, 2′,4-Dihydroxychalcone] | 1.6 | – | 101 | 88.3 | 102 | 95 | 99.2 | 100 | 106 | 99.1 | 95.3 | 101 | 108 | 101,4% | 102,1% | 97,8% | 99,3% | 100,0% | 98,6% | 39.8 ± 4.2 | –
O=C(/C=C/c1ccccc1)c1ccc(O)cc1O [Compound 4, 2′,4′-Dihydroxychalcone] | 2.1 | – | 101 | 79.6 | 104 | 97.2 | 89.4 | 103 | 79 | 99.3 | 77.8 | 102 | 76.5 | 102,2% | 101,8% | 101,5% | 100,7% | 99,3% | 101,1% | 25.2 ± 1.3 | activity at 400 µM [1, 14]: 100%
O=C(/C=C/c1ccccc1)c1cc(O)ccc1O [Compound 5, 2′,5′-Dihydroxychalcone] | – | – | – | – | – | – | – | – | – | – | – | – | – | – | – | – | – | – | – | 42.1 ± 11.3 | activity at 55 µM ([1]; MG1655, complex medium, 55 µM, read-out: Final Backscatter): 101%; activity at 55 µM ([1]; MG1655, complex medium, 55 µM, read-out: Growth rate): 103%; activity at 550 µM ([1]; MG1655, complex medium, 550 µM, read-out: Final Backscatter): 103%; activity at 55 µM ([1]; MG1655, minimal medium, 55 µM, read-out: Final Backscatter): 99.1%; activity at 55 µM ([1]; MG1655, minimal medium, 55 µM, read-out: Growth rate): 122%; activity at 550 µM ([1]; MG1655, minimal medium, 550 µM, read-out: Final Backscatter): 96.4%; Lag Phase ([1]; complex medium, 55 µM): 103,1%; Lag Phase ([1]; complex medium, 550 µM): 117,2%; Lag Phase ([1]; minimal medium, 55 µM): 105,9%; Lag Phase ([1]; minimal medium, 550 µM): 103,0%
O=C(/C=C/c1ccc(O)cc1)c1ccc(O)cc1O [Compound 6, 2′,4′,4-Trihydroxychalcone] | 1.5 | 38.2 ± 10.9 | 98.8 | 96 | 99.5 | 99.1 | 89.8 | 100 | 101 | 98.8 | 107 | 97.7 | 96.4 | 100,0% | 100,0% | 107,4% | 101,8% | 103,5% | 101,8% | – | activity at 400 µM [1, 14]: 95%
